Our source for the IC50 values is BindingDB's records for doi:10.7270/Q2F769WQ (University of Pittsburgh, 2007).

A value given as a limit tells only on which side of the number the result lay.

The target in this assay is T1, Dual specificity protein phosphatase 1 (Homo sapiens, UniProt P28562).
T1 sequence (P28562 whole entry): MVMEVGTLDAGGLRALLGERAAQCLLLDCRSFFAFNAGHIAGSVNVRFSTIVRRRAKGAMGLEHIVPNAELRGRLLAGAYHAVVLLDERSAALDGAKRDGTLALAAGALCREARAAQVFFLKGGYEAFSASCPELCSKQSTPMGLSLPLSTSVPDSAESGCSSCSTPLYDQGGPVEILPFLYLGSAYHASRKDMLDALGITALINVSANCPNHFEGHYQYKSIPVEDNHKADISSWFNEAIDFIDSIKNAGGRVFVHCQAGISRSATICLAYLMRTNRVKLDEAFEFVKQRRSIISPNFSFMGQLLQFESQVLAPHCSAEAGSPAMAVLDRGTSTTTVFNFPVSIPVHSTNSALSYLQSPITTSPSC
Nature of the assay: MKP-1 phosphatase inhibitor potency, dose response, biochemical, in vitro, confirmation (AID 551). Conditions: pH 7; 22 °C.
Turning to `Cc1nc2c(C(=O)NCCC3=CCCCC3)c[nH]n2c(=O)c1Cl` [6-chloro-N-(2-cyclohex-1-en-1-ylethyl)-7-hydroxy-5-methylpyrazolo[1,5-a]pyrimidine-3-carboxamide], the half-inhibitory concentration (IC50) (as a rule, the point on the concentration scale where inhibition reaches its midpoint) was 31.1 µM.
For `O=C1CC(c2ccccc2)c2cc(O)ccc2O1` (centres undefined) [6-hydroxy-4-phenyl-3,4-dihydro-2H-1-benzopyran-2-one] the value was 49.2 µM; for `O=C(c1ccc2c(=O)n(C3CCCC3)c(=S)[nH]c2c1)N1CCN(C2CCCCC2)CC1` [7-[(4-cyclohexyl-1-piperazinyl)-oxomethyl]-3-cyclopentyl-2-sulfanylidene-1H-quinazolin-4-one], greater than 50 µM; for `O=c1c2ccc[nH]c-2c(Nc2ccc(S(=O)(=O)N3CCCCCC3)cc2)n1Cc1ccccc1` [7-[[4-(azepan-1-ylsulfonyl)phenyl]amino]-6-(phenylmethyl)-7H-pyrrolo[3,4-b]pyridin-5-one], greater than 50 µM.
The value for `CCCCOc1ccccc1P(=O)(O)CP(=O)(c1ccccc1)c1ccccc1` [(2-butoxyphenyl)-(diphenylphosphorylmethyl)phosphinic acid] was greater than 50 µM.
For `O=C(c1ccc(-c2ccccc2)cc1)N1CCN(Cc2ccccn2)CC1` [(4-phenylphenyl)-[4-(2-pyridinylmethyl)-1-piperazinyl]methanone] the value was greater than 50 µM; for `O=C(c1cccs1)c1no[n+]([O-])c1C(=O)c1cccs1` [(5-oxidanidyl-4-thiophen-2-ylcarbonyl-1,2,5-oxadiazol-5-ium-3-yl)-thiophen-2-yl-methanone], 3.49 µM; for `Cc1cc2n(n1)SC(Nc1ccccc1)N2` (centres undefined) [(6-methyl-2,5-dihydropyrazolo[1,5-b][1,2,4]thiadiazol-2-yl)-phenyl-amine], greater than 50 µM.
`Nc1c(N2CCCC2)cc(Cl)c2nonc12` [(7-chloro-5-pyrrolidino-benzofurazan-4-yl)amine] yielded a half-maximal inhibitory concentration (IC50) greater than 50 µM.
The value for `[O-]/[N+](=C/c1ccc(F)cc1)c1ccccc1` [(E)-(4-fluorobenzylidene)(phenyl)azane oxide] was greater than 50 µM.
With `CC1=C(/C=C/C(C)=C/C=C/C(C)=C/C(=O)O)C(C)(C)CCC1` [ALL-TRANS-RETINOIC ACID], the IC50 amounted to 27.1 µM.
For `CCCCNC(=O)CSc1nnc(-c2ccco2)n1C` [MLS000033335] the value was greater than 50 µM.
For `CC(=O)[C@@H]1[C@@H]2C(=O)N(c3ccc(F)c(Cl)c3)C(=O)[C@@H]2C2c3ccccc3C=CN21` (some centres undefined) [MLS000040594] the value was greater than 50 µM; for `COCCCn1c(N)c(C(=O)NCCC(C)C)c2nc3ccccc3nc21` [MLS000041744], 26.2 µM; for `COC(=O)N(c1ccc(OC)cc1)P1(=S)OCCC(C)O1` (centres undefined) [MLS000043492], greater than 50 µM.
For `O=C(NC1CC1)c1c[nH]c2ccc(S(=O)(=O)Nc3cccc(C(F)(F)F)c3)cc2c1=O` [MLS000046685], the half-inhibitory concentration (IC50) is greater than 50 µM.
The value for `CCn1c(SCC(=O)Nc2ccc3c(c2)c2ccccc2n3CC)nnc1-c1ccco1` [MLS000050867] was 11.4 µM.
`CC(NC(=O)c1ccc2c(c1)OCO2)C1CCCO1` (centres undefined) [MLS000065753]: the IC50 is greater than 50 µM.
The value for `O=C1C=Cc2ccccc2/C1=C/NC12CN3CCN(CN(C3)C1)C2` [MLS000071484] was greater than 50 µM; that for `O=C1C(=C2C(=O)c3ccccc3C2=O)Nc2ccccc21` [MLS000071738] was greater than 50 µM; that for `Cc1ccc(NC(=O)CSc2nnc(-c3ccc(S(=O)(=O)N4CCCC4)cc3)o2)cc1C` [MLS000071775] was greater than 50 µM.
For `COc1ccc(-n2nnnc2SCC(=O)Nc2ccc3c(c2)OCCO3)c(OC)c1` [MLS000071837] the value was greater than 50 µM.
The value for `COc1ccc(-n2c(NC(=O)c3ccco3)c(C#N)c3nc4ccccc4nc32)cc1` [MLS000079925] was 15.3 µM; that for `COc1ccc(Cn2c(C)nc3c(c2=O)c2nc4ccccc4nc2n3Cc2ccco2)cc1` [MLS000079944] was 17 µM.
`Cc1ccc(-c2csc(NC(=O)c3ccno3)n2)cc1` [MLS000081820]: it took 39 µM to reach half-maximal inhibition (IC50).
The value for `CC(C)Sc1nc2sc3c(c2c2nnc(SCC(=O)NCc4ccco4)n12)CCCC3` [MLS000082957] was 10.4 µM; that for `Nc1nc2c(s1)CCc1c-2cnn1-c1ccccc1` [MLS000085948] was greater than 50 µM; that for `Cc1cc(NC(=O)c2ccc(S(=O)(=O)N3CCCC3)cc2)nc2c1c(=O)oc1ccccc12` [MLS000091355] was 38.2 µM.
For `O=C(CSc1nc2c(cnn2-c2ccccc2)c(=O)[nH]1)c1ccc(Cl)cc1` [MLS000091816] the value was greater than 50 µM; for `Cn1c(=O)c2cc(S(=O)(=O)NCCC(=O)NCCC3=CCCCC3)ccc2n(C)c1=O` [MLS000092640], greater than 50 µM.
For `COc1ccc(OC)c(NC(=O)CSc2nnc(Cc3cccn3C)n2CCc2ccccc2)c1` [MLS000092931] the value was greater than 50 µM; for `Cn1c(=O)oc2cc(S(=O)(=O)NCCC(=O)NC3CCCC3)ccc21` [MLS000093068], greater than 50 µM; for `FC(F)(F)c1ccc(N2CCOCC2)c(Nc2nc3ccccc3n3cnnc23)c1` [MLS000093276], 22.7 µM.
As to `COC(=O)c1ccccc1NC(=O)CN1C(=O)C2CCCN2c2ncc(Cl)cc21` (centres undefined) [MLS000094302], the IC50 was 35.9 µM.
The value for `CC1CCN(S(=O)(=O)c2ccc3c(c2)c(=O)c(C(=O)NC2CCCC2)cn3C)CC1` [MLS000095109] was greater than 50 µM.
The value for `CCc1ccc(NC(=O)CSc2nc3ccccc3c(=O)n2CCN2CCOCC2)cc1` [MLS000095236] was 45.8 µM; that for `Cc1nn(Cc2ccccc2)c(C)c1NC(=O)CSc1nc2sc3c(c2c(=O)n1C)CCC3` [MLS000096728] was greater than 50 µM.
For `Cc1nn2c(-c3cccc(NC(=O)c4ccco4)c3)nnc2c2ccccc12` [MLS000097401] the value was greater than 50 µM; for `N#CC(C(=O)CSc1nnc(Cc2cccs2)n1C1CCCCC1)c1nc2ccccc2[nH]1` (centres undefined) [MLS000098387], greater than 50 µM; for `Cc1c(N=c2c(=O)c3ccccc3c2=O)c(=O)n(-c2ccccc2)n1C` [MLS000105950], 8.85 µM.
`CCOc1ccc2noc3c2c1C(=O)c1ccccc1-3` [MLS000106837] had an IC50 of 49.2 µM.
With `COc1ccc2noc3c2c1C(=O)c1ccccc1-3` [MLS000106874], the IC50 was determined as 16.1 µM.
The value for `[O-]/[N+](=C\c1ccncc1)c1ccc(Br)cc1` [MLS000109219] was greater than 50 µM.
For `CCOC(=O)c1ccc2c(c1)C1C=CCC1C(C(=O)O)N2` (centres undefined) [MLS-0025126.0001] the value was 15.8 µM; for `O=C(NC1(O)C(=O)c2ccccc2C1=O)c1ccccc1` [N-(2-hydroxy-1,3-dioxo-2-indenyl)benzamide], 14.2 µM; for `O=C(Nc1cccc(-c2nc3ccccc3[nH]2)c1)c1cccc(NC(=O)c2ccco2)c1` [N-[3-[[3-(1H-benzimidazol-2-yl)phenyl]carbamoyl]phenyl]furan-2-carboxamide], greater than 50 µM.
For `Nc1ccc2ncccc2c1N` [SMR000015817] the value was greater than 50 µM; for `COc1ccc(-n2c(SCC(=O)N3CCCC3)nc3c([nH]c4ccccc43)c2=O)cc1` [SMR000018494], greater than 50 µM.
In the case of `CCCCCC1CCC(C(=O)O)CC1` (centres undefined) [SMR000019012], the half-maximal inhibitory concentration (IC50) was greater than 50 µM.
The value for `O=C(OC1CCCCC1)c1ccc2c(c1)C1C=CCC1C(C(=O)O)N2` (centres undefined) [SMR000019385] was 7.66 µM; that for `CC12CC(NC(=O)N1c1ccc(C(=O)N3CCN(c4ccc(F)cc4)CC3)cc1)c1ccccc1O2` (centres undefined) [SMR000026617] was greater than 50 µM; that for `CCCCn1c(NC(=O)c2ccccc2)c(C#N)c2nc3ccccc3nc21` [SMR000060333] was 23.5 µM.
For `N#Cc1c(N2CCCC2)nc(N)c2c(N)nc(N3CCCC3)cc12` [SMR000061605] the value was 0.136 µM.
For `CCOC(=O)c1ccc(Nc2c3[nH]cccc-3c(=O)n2Cc2ccc(F)cc2)cc1` [ethyl 4-[[6-[(4-fluorophenyl)methyl]-5-oxo-7H-pyrrolo[3,4-b]pyridin-7-yl]amino]benzoate] the value was greater than 50 µM.
